Measurements as given in publication PMC7737769, “Pharmacological inhibition of syntenin PDZ2 domain impairs breast cancer cell activities and exosome loading with syndecan and EpCAM cargo” (Journal of Extracellular Vesicles, 2020).

Key:
[1] = molecular target: T1, syntenin‐SDC2 complex (GST-SyntFL / SDC2 peptide) (Homo sapiens, UniProt O00560); assay: HTRF assay, syntenin-SDC2 interaction; assay type: biochemical; conditions: for GST SyntFL Syndecan 2 (signal ratio): 400µM compound, Figure 1c; for inhibition of syntenin PDZ interactions: HTRF primary screen, 400µM, syntenin-SDC2 and syntenin-Frizzled7; for HTRF ASSAY GST-SyntFL SDC2 (HTRF signal ratio): primary screen, 400 µM compound, signal below 0.9 considered effective inhibition, Table S1
T1 construct: residues 1–298 or syntenin full‐length (FL) for HTRF assays; made in house; host or cells: E. coli ER2566
T1 sequence (O00560 1-298): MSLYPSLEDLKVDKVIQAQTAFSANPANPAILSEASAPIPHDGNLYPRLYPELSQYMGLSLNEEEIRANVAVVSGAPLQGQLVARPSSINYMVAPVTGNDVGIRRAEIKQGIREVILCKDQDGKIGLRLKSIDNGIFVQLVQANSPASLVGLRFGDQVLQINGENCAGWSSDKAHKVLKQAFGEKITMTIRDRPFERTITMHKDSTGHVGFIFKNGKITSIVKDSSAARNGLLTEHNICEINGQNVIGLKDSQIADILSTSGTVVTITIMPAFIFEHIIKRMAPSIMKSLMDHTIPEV

[2] = test system: T2, syntenin‐Frizzled7 complex (GST-SyntFL / FZD7 peptide); assay: HTRF assay, syntenin-Frizzled 7 interaction; assay type: biochemical, human; conditions: for GST SyntFL Frizzled 7 (signal ratio): 400µM compound, Figure 1c; for HTRF ASSAY GST-SyntFL FZD7 (HTRF signal ratio): primary screen, 400 µM compound, signal below 0.9 considered effective inhibition, Table S1
T2 construct: residues 1–298 or syntenin full‐length (FL) for HTRF assays; made in house; host or cells: E. coli ER2566
Experimental: (§1) HTRF assays were performed in white 96Well Small VolumeHiBase Polystyrene Microplates (Greiner) with a total working volume of […], as described previously (Milhas et al., 2016). Briefly, compounds were firstly dispensed into the wells at 400 µM for the primary screen or with serial DMSO dilutions for IC50 measurement assays. Primary screening assays have been performed in monoplicate while IC50 measurements were performed in triplicates. All HTRF reagents were purchased from CisBio Bioassays and reconstituted according to the supplier protocols. The plates were spun for 3 min at 500 × g and then incubated at 4°C for 16 h. The HTRF signals were recorded on a POLAR star Omega plate reader (BMG Labtech) with an excitation filter at 337 nm and fluorescence wavelength measurement at 620 and 665 nm, an integration delay of 60 µs and an integration time of 400 µs. Results were analysed with a two‐wavelength signal ratio: [intensity (665 nm)/intensity (620 nm)] × 10^4. Percentage of inhibition was calculated using the following equation: % inhibition = [(compound signal)–(min signal)]/[(max signal)–(min signal)] × 100, where ‘max signal’ is the signal ratio with the compound vehicle alone (DMSO) and ‘min signal’ the signal ratio without protein B. For IC50 measurements, values were normalized and fitted with Prism (GraphPad software) using the following equation: Y = 100/(1+((X/ IC50)ˆHill slope)).
(§2) The search strategy for PDZ2 syntenin inhibitors was based on the PDZ targeted library developed from Enamine compound collection. The PDZ targeted library was developed to cover virtually all PDZ domains. Consequently, to create the syntenin PDZ2 focused library we used two independent paths: docking of the PDZ targeted library against structures of syntenin PDZ2 available in Protein Data Bank and a random selection from the PDZ targeted library. The docking has produced 21 virtual hits, which were added to 118 randomly selected compounds (10% of the pan PDZ library). The resultant set of 139 compounds, syntenin PDZ library was subjected to experimental validation. The primary screen was performed at 400µM using a previously validated Homogeneous Time Resolved Fluorescence (HTRF) assay (Milhas et al., 2016). HTRF is based on Fluorescence Resonance Energy Transfer (FRET) between two fluorescent reagents. In the present case, Anti‐GST‐Terbium antibody and streptavidin‐bound Dynamic2 were used as donor and acceptor respectively. Interactions between GST PDZ‐fusion proteins and biotinylated peptides containing PDZ binding motifs were challenged with the potential inhibitors. In parallel, control experiments were performed with a biotinylated‐GST to verify that compounds were not interfering with the FRET signal in a non‐specific manner. To identify inhibitors of syntenin PDZ interactions, we tested for the effect of the 139 compounds on syntenin‐SDC2 and syntenin‐Frizzled7 complexes (Figure 1a; Table S1). When the HTRF signal dropped below 0.9, inhibition was considered as effective. […] Noteworthy, these compounds had no effect on other PDZ complexes like GRASP55‐JAM‐B or GRASP55‐JAM‐C and Erbin‐Erbb2 or Erbin‐P0071 (Figure 1c).

[3] = test system: biotinylated‐GST; assay: HTRF control with biotinylated-GST (non-specific interference with FRET signal); conditions: for GST-biot (signal ratio): 400µM compound, Figure 1c; for effect on control (biotinylated‐GST) FRET signals: HTRF primary screen, 400µM; for HTRF ASSAY GST-biot (HTRF signal ratio, control): primary screen, 400 µM compound, Table S1
Experimental: as §1, §2

[4] = test system: T3, GRASP55‐JAM‐B complex; assay: HTRF assay, GRASP55-JAM-B interaction; assay type: biochemical, human; conditions: 400µM compound; Figure 1c
T3 construct: Human GRASP55 tandem PDZ; made in house; host or cells: E. coli BL21 (DE3)
Experimental: as §1, §2

[5] = test system: T4, GRASP55‐JAM‐C complex; assay: HTRF assay, GRASP55-JAM-C interaction; assay type: biochemical, human; conditions: 400µM compound; Figure 1c
T4 construct: Human GRASP55 tandem PDZ; made in house; host or cells: E. coli BL21 (DE3)
Experimental: as §1, §2

[6] = test system: T5, Erbin‐Erbb2 complex; assay: HTRF assay, Erbin-ERBB2 interaction; assay type: biochemical, human; conditions: 400µM compound; Figure 1c
T5 construct: human Erbin PDZ domain; made in house; host or cells: E. coli BL21 (DE3)
Experimental: as §1, §2

[7] = test system: T6, Erbin‐P0071 complex; assay: HTRF assay, Erbin-P0071 interaction; assay type: biochemical, human; conditions: 400µM compound; Figure 1c
T6 construct: human Erbin PDZ domain; made in house; host or cells: E. coli BL21 (DE3)
Experimental: as §1, §2

CC(C)[C@H](NC(=O)COc1ccc2ccccc2c1)C(=O)O [Compound C4]
GST SyntFL Syndecan 2 (signal ratio) [1]: 0.78
inhibition of syntenin PDZ interactions [1]: inhibit
HTRF ASSAY GST-SyntFL SDC2 (HTRF signal ratio) [1]: 0.78
GST SyntFL Frizzled 7 (signal ratio) [2]: 0.78
HTRF ASSAY GST-SyntFL FZD7 (HTRF signal ratio) [2]: 0.77
GST-biot (signal ratio) [3]: 0.97
effect on control (biotinylated‐GST) FRET signals [3]: no significant effect
HTRF ASSAY GST-biot (HTRF signal ratio, control) [3]: 1.02
GST-GRASP JAM-B (signal ratio) [4]: 0.97
GST-GRASP JAM-C (signal ratio) [5]: 0.89
GST-Erbin ERBB2 (signal ratio) [6]: 1.02
GST-Erbin P0071 (signal ratio) [7]: 0.89

CC(C)[C@H](NS(=O)(=O)c1ccc2c(c1)OCCCO2)C(=O)O [Compound C37]
GST SyntFL Syndecan 2 (signal ratio) [1]: 0.74
inhibition of syntenin PDZ interactions [1]: inhibit
HTRF ASSAY GST-SyntFL SDC2 (HTRF signal ratio) [1]: 0.73
GST SyntFL Frizzled 7 (signal ratio) [2]: 0.7
HTRF ASSAY GST-SyntFL FZD7 (HTRF signal ratio) [2]: 0.68
GST-biot (signal ratio) [3]: 0.97
effect on control (biotinylated‐GST) FRET signals [3]: no significant effect
HTRF ASSAY GST-biot (HTRF signal ratio, control) [3]: 1.04
GST-GRASP JAM-B (signal ratio) [4]: 1
GST-GRASP JAM-C (signal ratio) [5]: 1
GST-Erbin ERBB2 (signal ratio) [6]: 1.04
GST-Erbin P0071 (signal ratio) [7]: 0.95

CC(C)[C@H](NS(=O)(=O)c1ccc2ccccc2c1)C(=O)O [Compound C38]
GST SyntFL Syndecan 2 (signal ratio) [1]: 0.58
inhibition of syntenin PDZ interactions [1]: inhibit
inhibition at 400 µM ([1]; HTRF, 400 µM, syntenin-SDC2 and syntenin-Frizzled 7 complexes, read-out: extent of inhibition of Syntenin‐PDZ complexes): 40%
HTRF ASSAY GST-SyntFL SDC2 (HTRF signal ratio) [1]: 0.59
GST SyntFL Frizzled 7 (signal ratio) [2]: 0.55
HTRF ASSAY GST-SyntFL FZD7 (HTRF signal ratio) [2]: 0.56
GST-biot (signal ratio) [3]: 0.96
effect on control (biotinylated‐GST) FRET signals [3]: no significant effect
HTRF ASSAY GST-biot (HTRF signal ratio, control) [3]: 0.92
GST-GRASP JAM-B (signal ratio) [4]: 1
GST-GRASP JAM-C (signal ratio) [5]: 1
GST-Erbin ERBB2 (signal ratio) [6]: 0.92
GST-Erbin P0071 (signal ratio) [7]: 1

Cc1ccc(S(=O)(=O)N[C@H](C(=O)O)C(C)C)cc1C [Compound C47]
GST SyntFL Syndecan 2 (signal ratio) [1]: 0.78
inhibition of syntenin PDZ interactions [1]: inhibit
HTRF ASSAY GST-SyntFL SDC2 (HTRF signal ratio) [1]: 0.74
GST SyntFL Frizzled 7 (signal ratio) [2]: 0.78
HTRF ASSAY GST-SyntFL FZD7 (HTRF signal ratio) [2]: 0.71
GST-biot (signal ratio) [3]: 0.99
effect on control (biotinylated‐GST) FRET signals [3]: no significant effect
HTRF ASSAY GST-biot (HTRF signal ratio, control) [3]: 0.96
GST-GRASP JAM-B (signal ratio) [4]: 1.1
GST-GRASP JAM-C (signal ratio) [5]: 1
GST-Erbin ERBB2 (signal ratio) [6]: 0.96
GST-Erbin P0071 (signal ratio) [7]: 1
